Where two headings read alike, the source gives them in different places.
Key:
[1] = Surface tension; format: physicochemical
Text: Surfactants by their very nature can have toxic effects on aquatic organisms. They can coat surfaces or membranes required for the organism's oxygen exchange with the environment. Thus, it is advantageous for surfactants to degrade rapidly in the environment once their useful purpose has been served. Preferred surfactants for use in the present formulations have low aquatic toxicity (Table 4) and are biodegradable (see FIG. 2). Preferably they are soluble or dispersible in water, so that they form homogenous solutions or mixtures with the FPD/water mixtures in the fluid. Also it is preferred that the surfactant reduces the surface tension of the fluid below 35 dynes/cm (see surface tension, Table 6).

[2] = test system: D. Magnia; assay: Acute aquatic toxicity, 48 hr LC50; format: in vivo, daphnia magna
Text: The present invention provides for deicing and anti-icing compositions that are environmentally advantaged.
As aforesaid, there are environmental issues associated with deicers and anti-icers, mostly as a result of the type of FPD used. Freezing point depressants are typically toxic to mammals. Ethylene glycol, in particular, is toxic to mammals (see rat LD50 data, Table 3). LC50, refers to Lethal Concentration, 50%, which is the concentration of a substance at which 50% of the population of test organisms die. Ethylene glycol has also been listed by the EPA as a hazardous air pollutant (HAP).
Another aspect of concern is the toxicity of FPDs on aquatic life and environment. […] (see Table 4, FPD aquatic toxicity data).

[3] = test system: Rat; details: cited from earlier work

In the case of `O` [Water], the “Surface Tension (dynes/cm)” value [1] is reported as 75 dynes/cm.
In the case of `CC(O)CO` (centres unmarked) [Propylene glycol, reference compound], the “Acute tox. to D. Magnia, ppm (48 hr LC50)” value (“Acute tox. to D. Magnia, ppm” below) [2] is reported as 55,000 ppm.
For PEG-20 sorbitan oleate, the “Acute tox. to D. Magnia, ppm” value [2] was 46,000 ppm.
For `CC(O)CCO` (centres unmarked) [1,3 Butanediol, reference compound], the “Rat Acute Oral Toxicity (LD50, g/kg)” value ([3]; oral, acute) is listed as 18.6 g/kg.
In the case of `OCCOCCOCCO` [Triethylene glycol], the “Rat Acute Oral Toxicity (LD50, g/kg)” value ([3]; in vivo, po) is listed as 17 g/kg and the “Acute tox. to D. Magnia, ppm” value [2] is listed as 66,000 ppm.
For `OCCO` [Ethylene glycol, reference compound], the “Acute tox. to D. Magnia, ppm” value [2] was 77,000 ppm.
For PEG-12 oleate, the “Acute tox. to D. Magnia, ppm” value [2] was 13,000 ppm.

From patent publication US7270767B1, “Environmentally friendly de-icer and anti-icer compositions” (priority 1999, dated 2007)
